Experimental data taken from paper PMC3334918, “Mutagenesis and Functional Studies with Succinate Dehydrogenase Inhibitors in the Wheat Pathogen Mycosphaerella graminicola” (PLoS ONE, 2012).

Experiments:
[1] = test system: M. graminicola WT (IPO323); assay: microbe, parasite or virus in culture; assay type: cell-based, Mycosphaerella graminicola; conditions: Zymoseptoria tritici; WT (IPO323), liquid culture growth, ±S.E. (triplicate); read-out: IC50 in vivo
Procedure: (§1) To explore the sensitivity profiles conferred by amino acid substitutions at the cellular and mitochondrial level, we determined sensitivity towards 4 different compounds for 26 of the identified substitution types both in vivo using liquid culture growth (AE media) and in vitro using purified mitochondria and the succinate: Q0/DCPIP activity test (Table 3). […] Resistance factors (RF) were determined as the ratio IC50mutant/IC50WT. […] Qp site mutations are well known to influence SDH enzyme activity and stability upon catalysis, [13], [38], [41].
(§2) Conidial cells were collected from 4 day old V8 agar plates (cultured at 18°C in the dark) using liquid AE and a cell spreader. Cell density was determined and cells re-suspended to a concentration of 5×10^5 cells ml^−1 in AE media. Sterile 96 wells microtiter plates with lids (Costar) were inoculated with 198 µl of this cell suspension (10^5 cells per well) and 2 µl of inhibitor (100× in DMSO). Final inhibitor concentrations were between 0.95 nM and 1 mM with uniform 4× dilution factor steps (11 inhibitor concentrations+1 DMSO control). Plates were incubated for 6 days at 19°C in the dark before cells were re-suspended and measured for growth (OD600 nm). IC50 values were determined by non linear curve fitting on the basis of measured OD values versus log inhibitor concentrations (GraphPad Prism 5.0 software).

[2] = examination of supplemented AE agar plates for precipitate; assay type: physicochemical; conditions: AE agar plates supplemented with 150 µM (5×MSC), developed over time
[3] = molecular target: succinate dehydrogenase (SDH), WT (IPO323) (Zymoseptoria tritici (Mycosphaerella graminicola), UniProt F9X9V6+F9XG45+F9XH52); assay: in vitro succinate: Q0/DCPIP activity test, purified mitochondria; assay type: biochemical; conditions: read-out: IC50 in vitro, ±S.E. (triplicate)
Procedure: as §1
Strains were grown in 1 liter TSM40 units. Cultures were inoculated at 0.05 OD600 nm and grown on a reciprocal shaker (110 rpm, 22°C) for 5 days. Cells were harvested by vacuum filtration and disrupted in liquid nitrogen using a mortar and pestle. Resultant powder was re-suspended to 10% w/v in mitochondrial extraction buffer (10 mM KHPO4 pH7.2; 10 mM KCl, 10 mM MgCl2, 0.5 M sucrose, 0.2 mM EDTA, 2 mM PMSF). Extract was clarified by centrifugation (5,000 g, 4°C for 10 minutes, 2 times), intact mitochondria were then pelleted at 10,000 g for 20 minutes at 4°C. […] This volume was transferred to conical 1.5 ml tubes and re-centrifuged, 10,000 g for 10 minutes at 4°C. […] Mitochondrial suspensions were brought to a final concentration of 10 mg ml^−1 in extraction buffer and stored at −80°C until used.
Mitochondrial suspensions were incubated at 30°C for 30 minutes in extraction buffer supplemented with 10 mM succinate prior to enzymatic measurements.
A reaction plate was equilibrated for 10 minutes at 30°C before starting the reaction. DCPIP reduction was conducted at 30°C and monitored at 595 nm using a HTS7000 microtiterplate reader (Perkin Elmer). For calculations a molecular extinction coefficient of ε = 17 mM^−1 cm^−1 was used.
Inhibitor concentrations ranged between 1 mM and 0.95 nM with uniform 4× dilution factor steps (11 inhibitor concentrations+DMSO control). 96 wells plates were pre equilibrated at reaction temperature (30°C) for 10 minutes before the reactions were started by the addition of 5 µl preactivated M. graminicola mitochondrial suspension. Calculated absorbance slopes (OD/hour) were used for IC50 calculations using Graphpad Prism 5.0 software non linear curve fitting against log inhibitor concentrations.

[4] = test system: M. graminicola strain Cbx28 (SDHB_H267Y); assay: in vivo sensitivity, liquid culture growth (AE media); assay type: cell-based, Mycosphaerella graminicola; conditions: M. graminicola SDHB_H267Y; compound A: data not shown
Procedure: as §1, §2

[5] = test system: wild type IPO323 M. graminicola strain; assay type: cell-based, Mycosphaerella graminicola; conditions: minimal concentration to fully inhibit growth of WT IPO323, AE agar, 10^7 cells, 2 weeks at 20°C in the dark
Text: (§3) Selection plates were produced after adding 1% of a 100× DMSO solution of the active ingredients to pre-melted AE-agar.

[6] = test system: M. graminicola isolate IPO323; assay: UV mutagenesis and selection of resistant colonies on carboxamide amended AE agar; assay type: cell-based, Mycosphaerella graminicola
Procedure: as §3
Cells were harvested from 4 days old V8 agar plates and conidial cells were suspended in liquid AE. 10^7 cells were spread onto carboxamide amended AE agar plates and mutagenized using UV Stratalinker 2400 (Stratagene) with 75 mJ cm^−2 or 50 mJ cm^−2. […] Selection plates were incubated in the dark at 20°C for 14 days. Visible colonies were picked from the primary selection plate and re-grown on fresh selection media for 2 additional weeks under the same conditions.

Chain of succinate dehydrogenase (SDH), WT (IPO323) (F9XG45 entry or part of it): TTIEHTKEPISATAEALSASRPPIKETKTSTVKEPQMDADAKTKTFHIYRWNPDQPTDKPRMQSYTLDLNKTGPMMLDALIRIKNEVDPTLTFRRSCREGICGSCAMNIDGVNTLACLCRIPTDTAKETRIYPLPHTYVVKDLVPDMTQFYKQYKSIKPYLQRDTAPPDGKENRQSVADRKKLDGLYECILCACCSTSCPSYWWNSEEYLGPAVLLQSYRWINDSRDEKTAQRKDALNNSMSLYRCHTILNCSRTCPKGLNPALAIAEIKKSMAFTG
Chain of succinate dehydrogenase (SDH), WT (IPO323) (F9X9V6 entry or part of it): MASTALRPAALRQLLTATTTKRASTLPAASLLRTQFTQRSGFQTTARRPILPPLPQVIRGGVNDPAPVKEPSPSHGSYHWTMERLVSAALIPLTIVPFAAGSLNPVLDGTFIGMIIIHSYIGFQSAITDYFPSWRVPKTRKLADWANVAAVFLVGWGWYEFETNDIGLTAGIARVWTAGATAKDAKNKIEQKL
Chain of succinate dehydrogenase (SDH), WT (IPO323) (F9XH52 entry or part of it): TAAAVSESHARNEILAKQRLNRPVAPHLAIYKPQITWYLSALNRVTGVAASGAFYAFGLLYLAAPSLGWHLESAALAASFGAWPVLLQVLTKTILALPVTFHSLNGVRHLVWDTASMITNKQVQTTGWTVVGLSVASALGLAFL

Structure (SMILES)	IC50 [1] [nM]	precipitation in the media [2]	IC50 [3] [nM]	sensitivity / control of the SDHB_H267Y mutant compared to the WT [4]	Minimal selective concentration (MSC) [5]	Frequency (of resistance development) ([6]; selection at MSC, UV treatment 50 mJ cm^−2)	Frequency (of resistance development) ([6]; selection at MSC, UV treatment 75 mJ cm^−2)	Frequency (of resistance development) ([6]; selection at […] MSC, UV treatment 50 mJ cm^−2)	Frequency (of resistance development) ([6]; selection at […] MSC, UV treatment 75 mJ cm^−2)
O=C(Nc1ccccc1-c1ccc(Cl)cc1)c1cccnc1Cl [Boscalid]	455 ± 47	white precipitate	60 ± 1.8						
O=C(NCCc1ncc(C(F)(F)F)cc1Cl)c1ccccc1C(F)(F)F [Fluopyram]	584 ± 100		44 ± 2.2	hypersensitivity					
CC1=C(C(=O)Nc2ccccc2)SCCO1 [Carboxin]	6470 ± 1080		1160 ± 102						
CC(C)C1C2CCC1c1c(NC(=O)c3cn(C)cc3C(F)(F)F)cccc12 (centres unmarked) [compound A]				better control	compound A 100 µM (MSC)	1.4E-07	2.1E-07	2.1E-07	1.9E-07
